Measurements as given in BindingDB's records for doi:10.2165/00003495-200262180-00006 (Adis International, 2002).

Biological target: Prostaglandin G/H synthase 1 (Homo sapiens, UniProt P23219)
Sequence (P23219 whole entry): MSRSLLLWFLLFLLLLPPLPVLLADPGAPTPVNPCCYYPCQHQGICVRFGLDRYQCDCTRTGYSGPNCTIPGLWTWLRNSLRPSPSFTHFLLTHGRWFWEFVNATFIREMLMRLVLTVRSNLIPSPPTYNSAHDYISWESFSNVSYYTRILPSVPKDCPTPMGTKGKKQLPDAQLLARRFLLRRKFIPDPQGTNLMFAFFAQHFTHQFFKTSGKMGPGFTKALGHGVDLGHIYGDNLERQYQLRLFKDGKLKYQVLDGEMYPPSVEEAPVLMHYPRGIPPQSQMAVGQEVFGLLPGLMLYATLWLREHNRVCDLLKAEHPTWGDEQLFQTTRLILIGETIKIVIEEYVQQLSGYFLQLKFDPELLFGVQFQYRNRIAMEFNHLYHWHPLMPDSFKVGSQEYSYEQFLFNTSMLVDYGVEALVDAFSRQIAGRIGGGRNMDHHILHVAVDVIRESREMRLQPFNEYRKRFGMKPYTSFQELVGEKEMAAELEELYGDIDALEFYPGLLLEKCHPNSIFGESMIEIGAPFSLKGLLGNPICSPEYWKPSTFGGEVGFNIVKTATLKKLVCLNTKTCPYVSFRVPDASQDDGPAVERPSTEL

Cc1ccc(-c2ncc(Cl)cc2-c2ccc(S(C)(=O)=O)cc2)cn1
Ki: > 10 µM
